The values that follow come from patent US7772383B2, “Chemical PCR: Compositions for enhancing polynucleotide amplification reactions” (The Trustees of Princeton University, priority 2002, dated 2010).

What all share (format): biochemical
Assay [1] has as its system bovine brain glycolipid transfer protein (GTP) cDNA (660 bp). Nature of the assay: PCR amplification of GTP cDNA with diol additives, standard cycling. Particulars: for amplification of GTP over annealing temperature gradients (in words): 95° C. denaturing temperature. Here is the method:
(§1) Amplification reactions were carried out under the following general conditions. Those skilled in the art will appreciate, however, that to the extent that the conditions (set forth in this application) required for specific experiments described in this example were inconsistent with the following general conditions, limited exceptions to the following general conditions were made The general conditions were as follows: 10 Mm Tris-HCl (Ph 8.8), 50 Mm KCl, 1.5 Mm MgCl2, 0.01% (w/v) gelatin, 0.2 Um primers, 0.06 ng/ul template, 0.2 Mm each Dntp, 0.04 U/ul Taq polymerase. The templates used were bovine brain N-WASP cDNA (1518 bp), a 996 bp segment of human myeloid leukocyte c-jun cDNA, a 511 bp segment of human prostate-specific membrane antigen (PSM) cDNA, and bovine brain glycolipid transfer protein (GTP) cDNA (660 bp). cDNA synthesis was carried out using the FIRST-STRAND® RT-PCR kit from Stratagene on the respective mRNAs purchased from Clontech. All amplification reactions for gene were carried out using a single master batch of cDNA. Taq polymerase and dNTPs were obtained from Stratagene. Primers were obtained from Genosys. Primer melting temperatures (Tms) were calculated using the Genosys oligo calculator program. The sequences of the primers were as follows.
(§2) Polymerase chain reactions for the N-WASP gene were conducted on a ROBOCYCLER® Gradient 40 thermal cycler from Stratagene using 100 ul solutions in 600 ul thin-walled tubes. For expediency, amplification of c-jun, PSM and GTP was carried out in a ROBOCYCLER® Gradient 96 thermal cycler from Stratagene using 50 ul solutions in 200 ul thin-walled tubes. Prior to Taq polymerase addition, a hotstart protocol was carried out that consisted of an initial cycle of 95° C. for 5 minutes (11) to ensure complete first-strand separation, followed by a cycle of 54° C. for 5 minutes. Amplifications were run for 30 cycles. […] Extension was done at 72° C. for periods depending on target length: 2 minutes for N-WASP, 1.5 minutes for c-jun and GTP, and 1 minute for PSM. Annealings were carried out either at fixed concentrations of additives using temperature gradients of 38-56° C. for N-WASP and 44-58° C. for the other targets, or at varying concentrations of additives using fixed temperatures of 41° C. for N-WASP, 50° C. for c-jun and PSM, and 54° C. for GTP.
(§3) Amplification products were analyzed by agarose gel electrophoresis on 0.8% agarose gels in which 20 ul reaction products were loaded with 4 ul loading buffer. Gels were stained with ethidium bromide, visualized on a UV transilluminator (Fisher), and documented by photography. Densitometric quantitation of amplification products was carried out using IMAGE SCANNER® and IMAGE MASTER® software from Amersham Pharmacia. Background correction was done using the software's rolling disc method.
Investigations into the PCR enhancing capabilities of diol cosolvents were carried out using GTP as the primary template. […] The standard protocol for annealing temperature and concentration gradient screening was again followed. […] These cosolvents were thus omitted from further studies. The optimal annealing temperatures for the remaining compounds were: ethylene glycol, 1,2-propanediol, 1,3-propanediol and cis-1,2-cyclopentanediol—58° C.; 1,2-butanediol—54° C.; 1,3-butanediol and 1,4-butanediol—[…]; 2,4-pentanediol, 1,5-pentanediol, 1,6-hexanediol and MPD—56° C.

Assay [2] concerns 996 bp segment of human myeloid leukocyte c-jun cDNA. Nature of the assay: PCR amplification of c-jun cDNA with diol additives, standard cycling. As to the method: as §1, §2, §3
(§4) With PSM, 1,2-propanediol, 1,2-butanediol, 1,3-butanediol, 1,4-butanediol and glycerol were tested; with c-jun, ethylene glycol and 1,3-propanediol were also tested in addition to these compounds. […] The following additive concentrations were tested using these annealing temperatures: 1,2-propanediol—0.5, 0.8, 1.1, 1.4, 1.7 and 2.0M; 1,2-butanediol—0.1, 0.3, 0.5, 0.6, 0.7 and 0.8M; 1,3-butanediol—0.1, 0.3, 0.5, 0.6, 0.9, 1.1, 1.2M; 1,4-butanediol—0.1 to 1.1M in 0.2M intervals; 1,5-pentanediol—0.1-0.6M in 0.1M intervals; glycerol—0.5 to 1.9M in 0.2M intervals, and 2.2M.

The subject of assay [3] is 511 bp segment of human prostate-specific membrane antigen (PSM) cDNA. Nature of the assay: PCR amplification of PSM cDNA with diol additives, standard cycling. Conditions: for Specificity / Effective range / Potency: PSM; for Specificity: best specificity (densitometric volume of target as percent of total volume) over the effective range; for Effective range: concentration interval over which densitometric volume of target is at least 50% of maximum; for Potency: normalized maximum densitometric volume of target band: 1,3-Butanediol = 1. Here is the method: as §1, §2, §3, §4

The test system of assay [4] is 1026 by segment of the Thy-1 gene from rat genomic DNA.
Setting [5] is: c-jun, concentration interval over which densitometric volume of target band is at least 50% of maximum volume.
[6] abbreviates: c-jun, normalized maximum densitometric volume of target band: 1,5-Pentanediol = 1.
[7] abbreviates: GTP, 95° C. denaturing, 72° C. extension, normalized maximum densitometric volume of target band: 1,5-Pentanediol = 1.
The mark [8] stands for this setting: GTP, concentration interval over which densitometric volume of target band is at least 50% of maximum volume.

SMILES strings stand for the structures. Read-outs that look alike come from different tables or passages of the source.

As for `O[C@@H]1CCC[C@H]1O` (relative stereo) [trans-1,2-Cyclopentanediol], the “amplification of GTP over annealing temperature gradients (in words)” value in assay [1] (GTP) is given as “inhibitory at all concentrations”.
On the same count and under the same terms, under `CCCCC(O)CO` (stereo not drawn) [1,2-Hexanediol] stands “detectable amplification only in very narrow concentration ranges”; under `CCCC(O)CO` (stereo not drawn) [1,2-Pentanediol], “detectable amplification only in very narrow concentration ranges”.
In the case of `CC(O)CO` (stereo not drawn) [1,2-Propanediol], the results for the “Effective range” value in assay [2] (setting [5]), in assay [1] (setting [8]) and in assay [3] were 0.43 to 1.87 M, 0.52 to 1.79 M and 0.65 to 1.40 M, respectively. In addition, the Potency in assay [2] (setting [6]) amounted to 0.60; in assay [1] (setting [7]), 0.64; in assay [3], 0.75. For the same compound, in assay [3], the Specificity was 89%.
For `CC(O)CCO` (stereo not drawn) [1,3-Butanediol], the “Effective range” value was in the range of 0.40 to 1.12 M in assay [2] (setting [5]), 0.29 to 0.96 M in assay [1] (setting [8]) and 0.55 to 1.03 M in assay [3]. The Potency in assay [2] (setting [6]) amounted to 0.77; in assay [1] (setting [7]), 0.85; in assay [3], 1.00. In assay [4], the “amplification yield of Thy-1 genomic DNA (in words)” value is reported as “particularly dramatic improvement”. Also, the Specificity in assay [3] is 94%. Also, the “PSM Potency” value in assay [3] (comparative standard 95/50/72° C., 0.8 M, best result under conventional conditions, normalization reference) was determined as 1.00. For the same compound, the “PSM Specificity” value in assay [3] (comparative standard 95/50/72° C., 0.8 M, densitometric volume of target band as percent of total volume) turned out to be 94%.
With `OCCCO` [1,3-Propanediol], the “Effective range” value in assay [2] (setting [5]) was 0.59 to 0.96 M; in assay [1] (setting [8]), 0.31 to 1.18 M. In addition, the Potency was 0.25 in assay [2] (setting [6]) and 0.39 in assay [1] (setting [7]).
As for `OCCCCO` [1,4-Butanediol], the “Effective range” value in assay [2] lay within 0.35 to 0.91 M; in assay [1] it was 0.16 to 0.77 M; in assay [3], 0.38 to 0.80 M. In addition, the Potency amounted to 0.82 in assay [2], 0.87 in assay [1] and 0.65 in assay [3]. For the same compound, in assay [3], the Specificity turned out to be 92%.
Take `CC(O)CC(C)O` (stereo not drawn) [2,4-Pentanediol]: the Potency in assay [1] (setting [7]) is 0.61. For the same compound, in assay [1] (setting [8]), the “Effective range” value fell in the range of 0.25 to 0.70 M.
The matching figures for `CC(O)CC(C)(C)O` (stereo not drawn) [2-Methyl-2,4-Pentanediol]: 0.45 and 0.12 to 0.33 M.
As to `OCCO` [Ethylene glycol], in assay [2], the “Effective range” value fell in the range of 0.71 to 3.10 M and the Potency worked out at 0.58. Moreover, in assay [4], the “amplification yield of Thy-1 genomic DNA (in words)” value is “improve amplification yield”. Further, in assay [1], the “Effective range” value was 1.55 to 3.55 M and the Potency stood at 0.62.
Take `O[C@@H]1CCC[C@@H]1O` [cis-1,2-Cyclopentanediol]: the Potency in assay [1] (setting [7]) turned out to be 0.91. Besides, the “Effective range” value in assay [1] (setting [8]) was 0.13 to 0.35 M.
